Test results taken from patent US10670605B2, “Cysteine reactive probes and uses thereof” (The Scripps Research Institute, priority 2015, dated 2020).

Columns and labels:
Test in all cases: Competitive isoTOP-ABPP in situ (fragment-treated cells)
Assay type in all cases: cell-based
[1] = target: cysteines in MDA-MB-231 and Ramos cells (Homo sapiens, UniProt P35658); conditions: 200 μM, insitu
[2] = target: cysteines in MDA-MB-231 and Ramos cells (Homo sapiens, UniProt Q15149); conditions: 200 μM, insitu, 231
[3] = target: T1, cysteines in MDA-MB-231 and Ramos cells (Homo sapiens, UniProt O00244); conditions: 200 μM, insitu
T1 sequence (O00244 1-68): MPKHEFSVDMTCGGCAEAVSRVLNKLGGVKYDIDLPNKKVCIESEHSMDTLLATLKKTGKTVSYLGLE

[4] = target: T2, cysteines in MDA-MB-231 and Ramos cells (Homo sapiens, UniProt Q9NWA0); conditions: 200 μM, insitu
T2 sequence (Q9NWA0 1-146): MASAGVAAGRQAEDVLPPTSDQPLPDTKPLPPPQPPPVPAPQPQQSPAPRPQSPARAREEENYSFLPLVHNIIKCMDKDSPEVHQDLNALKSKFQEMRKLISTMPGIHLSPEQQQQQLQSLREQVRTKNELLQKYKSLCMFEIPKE

[5] = target: T3, cysteines in MDA-MB-231 and Ramos cells (Homo sapiens, UniProt Q9Y679); conditions: 200 μM, insitu, 231
T3 sequence (Q9Y679 1-410): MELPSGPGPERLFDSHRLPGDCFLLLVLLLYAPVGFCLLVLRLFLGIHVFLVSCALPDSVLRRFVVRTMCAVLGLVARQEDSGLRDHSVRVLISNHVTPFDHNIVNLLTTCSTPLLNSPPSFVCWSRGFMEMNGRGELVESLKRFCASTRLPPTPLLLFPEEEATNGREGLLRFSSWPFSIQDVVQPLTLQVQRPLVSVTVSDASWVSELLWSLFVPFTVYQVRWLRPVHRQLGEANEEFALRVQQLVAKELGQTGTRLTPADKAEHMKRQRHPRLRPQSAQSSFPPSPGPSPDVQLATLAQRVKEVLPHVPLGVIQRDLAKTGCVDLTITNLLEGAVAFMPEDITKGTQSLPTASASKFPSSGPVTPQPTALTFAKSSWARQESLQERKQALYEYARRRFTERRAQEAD

[6] = target: cysteines in MDA-MB-231 and Ramos cells (Homo sapiens, UniProt P27707); conditions: 200 μM, insitu
[7] = target: T4, cysteines in MDA-MB-231 and Ramos cells (Homo sapiens, UniProt Q01433); conditions: 200 μM, insitu, 231
T4 sequence (Q01433 1-825): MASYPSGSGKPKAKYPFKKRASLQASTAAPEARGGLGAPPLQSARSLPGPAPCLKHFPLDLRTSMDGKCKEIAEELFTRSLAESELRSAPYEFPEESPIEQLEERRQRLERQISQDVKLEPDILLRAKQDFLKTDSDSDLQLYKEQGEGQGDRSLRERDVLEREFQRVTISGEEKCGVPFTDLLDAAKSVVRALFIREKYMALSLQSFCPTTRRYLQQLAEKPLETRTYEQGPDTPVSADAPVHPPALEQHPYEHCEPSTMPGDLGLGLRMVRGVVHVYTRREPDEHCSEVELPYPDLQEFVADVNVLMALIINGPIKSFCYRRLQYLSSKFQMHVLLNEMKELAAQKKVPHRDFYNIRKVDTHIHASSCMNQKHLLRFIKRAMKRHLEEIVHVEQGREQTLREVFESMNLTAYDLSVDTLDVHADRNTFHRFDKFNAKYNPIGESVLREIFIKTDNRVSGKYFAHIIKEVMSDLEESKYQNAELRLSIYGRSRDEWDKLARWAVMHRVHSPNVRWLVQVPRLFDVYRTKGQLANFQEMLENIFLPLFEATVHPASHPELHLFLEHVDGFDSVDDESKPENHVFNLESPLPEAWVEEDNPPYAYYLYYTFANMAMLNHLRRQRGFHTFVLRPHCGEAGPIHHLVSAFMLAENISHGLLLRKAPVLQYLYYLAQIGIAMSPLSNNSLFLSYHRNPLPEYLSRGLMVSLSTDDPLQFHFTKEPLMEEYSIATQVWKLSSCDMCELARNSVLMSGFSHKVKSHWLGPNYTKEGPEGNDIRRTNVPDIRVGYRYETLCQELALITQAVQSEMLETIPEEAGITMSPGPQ

[8] = target: T5, cysteines in MDA-MB-231 and Ramos cells (Homo sapiens, UniProt Q8WV74); conditions: 200 μM, insitu, 231
T5 sequence (Q8WV74 1-236): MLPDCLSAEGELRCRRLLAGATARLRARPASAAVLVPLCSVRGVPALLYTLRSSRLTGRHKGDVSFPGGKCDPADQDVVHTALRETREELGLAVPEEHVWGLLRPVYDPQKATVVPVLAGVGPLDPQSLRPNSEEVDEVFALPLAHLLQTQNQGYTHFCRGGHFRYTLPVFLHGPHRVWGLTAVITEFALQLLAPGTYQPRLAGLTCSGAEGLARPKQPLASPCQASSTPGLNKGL

[9] = target: T6, cysteines in MDA-MB-231 and Ramos cells (Homo sapiens, UniProt Q9P0J1); conditions: 200 μM, insitu
T6 sequence (Q9P0J1 72-537): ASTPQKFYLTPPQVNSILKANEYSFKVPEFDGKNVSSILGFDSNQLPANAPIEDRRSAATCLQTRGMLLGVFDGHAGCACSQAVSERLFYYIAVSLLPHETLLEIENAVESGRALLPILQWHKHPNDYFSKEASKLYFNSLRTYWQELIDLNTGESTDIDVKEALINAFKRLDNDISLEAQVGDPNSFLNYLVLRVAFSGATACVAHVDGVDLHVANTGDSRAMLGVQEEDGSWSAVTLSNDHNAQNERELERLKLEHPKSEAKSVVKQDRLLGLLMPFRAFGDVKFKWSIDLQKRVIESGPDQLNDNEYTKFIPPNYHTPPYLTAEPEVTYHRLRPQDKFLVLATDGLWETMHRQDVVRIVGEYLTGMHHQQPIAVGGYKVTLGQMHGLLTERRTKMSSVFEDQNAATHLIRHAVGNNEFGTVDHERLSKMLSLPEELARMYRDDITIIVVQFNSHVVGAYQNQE

[10] = target: cysteines in MDA-MB-231 and Ramos cells (Homo sapiens, UniProt P14635); conditions: 200 μM, insitu, 231

Sequence of cysteines in MDA-MB-231 and Ramos cells (Homo sapiens, UniProt Q15149) (Q15149 whole entry): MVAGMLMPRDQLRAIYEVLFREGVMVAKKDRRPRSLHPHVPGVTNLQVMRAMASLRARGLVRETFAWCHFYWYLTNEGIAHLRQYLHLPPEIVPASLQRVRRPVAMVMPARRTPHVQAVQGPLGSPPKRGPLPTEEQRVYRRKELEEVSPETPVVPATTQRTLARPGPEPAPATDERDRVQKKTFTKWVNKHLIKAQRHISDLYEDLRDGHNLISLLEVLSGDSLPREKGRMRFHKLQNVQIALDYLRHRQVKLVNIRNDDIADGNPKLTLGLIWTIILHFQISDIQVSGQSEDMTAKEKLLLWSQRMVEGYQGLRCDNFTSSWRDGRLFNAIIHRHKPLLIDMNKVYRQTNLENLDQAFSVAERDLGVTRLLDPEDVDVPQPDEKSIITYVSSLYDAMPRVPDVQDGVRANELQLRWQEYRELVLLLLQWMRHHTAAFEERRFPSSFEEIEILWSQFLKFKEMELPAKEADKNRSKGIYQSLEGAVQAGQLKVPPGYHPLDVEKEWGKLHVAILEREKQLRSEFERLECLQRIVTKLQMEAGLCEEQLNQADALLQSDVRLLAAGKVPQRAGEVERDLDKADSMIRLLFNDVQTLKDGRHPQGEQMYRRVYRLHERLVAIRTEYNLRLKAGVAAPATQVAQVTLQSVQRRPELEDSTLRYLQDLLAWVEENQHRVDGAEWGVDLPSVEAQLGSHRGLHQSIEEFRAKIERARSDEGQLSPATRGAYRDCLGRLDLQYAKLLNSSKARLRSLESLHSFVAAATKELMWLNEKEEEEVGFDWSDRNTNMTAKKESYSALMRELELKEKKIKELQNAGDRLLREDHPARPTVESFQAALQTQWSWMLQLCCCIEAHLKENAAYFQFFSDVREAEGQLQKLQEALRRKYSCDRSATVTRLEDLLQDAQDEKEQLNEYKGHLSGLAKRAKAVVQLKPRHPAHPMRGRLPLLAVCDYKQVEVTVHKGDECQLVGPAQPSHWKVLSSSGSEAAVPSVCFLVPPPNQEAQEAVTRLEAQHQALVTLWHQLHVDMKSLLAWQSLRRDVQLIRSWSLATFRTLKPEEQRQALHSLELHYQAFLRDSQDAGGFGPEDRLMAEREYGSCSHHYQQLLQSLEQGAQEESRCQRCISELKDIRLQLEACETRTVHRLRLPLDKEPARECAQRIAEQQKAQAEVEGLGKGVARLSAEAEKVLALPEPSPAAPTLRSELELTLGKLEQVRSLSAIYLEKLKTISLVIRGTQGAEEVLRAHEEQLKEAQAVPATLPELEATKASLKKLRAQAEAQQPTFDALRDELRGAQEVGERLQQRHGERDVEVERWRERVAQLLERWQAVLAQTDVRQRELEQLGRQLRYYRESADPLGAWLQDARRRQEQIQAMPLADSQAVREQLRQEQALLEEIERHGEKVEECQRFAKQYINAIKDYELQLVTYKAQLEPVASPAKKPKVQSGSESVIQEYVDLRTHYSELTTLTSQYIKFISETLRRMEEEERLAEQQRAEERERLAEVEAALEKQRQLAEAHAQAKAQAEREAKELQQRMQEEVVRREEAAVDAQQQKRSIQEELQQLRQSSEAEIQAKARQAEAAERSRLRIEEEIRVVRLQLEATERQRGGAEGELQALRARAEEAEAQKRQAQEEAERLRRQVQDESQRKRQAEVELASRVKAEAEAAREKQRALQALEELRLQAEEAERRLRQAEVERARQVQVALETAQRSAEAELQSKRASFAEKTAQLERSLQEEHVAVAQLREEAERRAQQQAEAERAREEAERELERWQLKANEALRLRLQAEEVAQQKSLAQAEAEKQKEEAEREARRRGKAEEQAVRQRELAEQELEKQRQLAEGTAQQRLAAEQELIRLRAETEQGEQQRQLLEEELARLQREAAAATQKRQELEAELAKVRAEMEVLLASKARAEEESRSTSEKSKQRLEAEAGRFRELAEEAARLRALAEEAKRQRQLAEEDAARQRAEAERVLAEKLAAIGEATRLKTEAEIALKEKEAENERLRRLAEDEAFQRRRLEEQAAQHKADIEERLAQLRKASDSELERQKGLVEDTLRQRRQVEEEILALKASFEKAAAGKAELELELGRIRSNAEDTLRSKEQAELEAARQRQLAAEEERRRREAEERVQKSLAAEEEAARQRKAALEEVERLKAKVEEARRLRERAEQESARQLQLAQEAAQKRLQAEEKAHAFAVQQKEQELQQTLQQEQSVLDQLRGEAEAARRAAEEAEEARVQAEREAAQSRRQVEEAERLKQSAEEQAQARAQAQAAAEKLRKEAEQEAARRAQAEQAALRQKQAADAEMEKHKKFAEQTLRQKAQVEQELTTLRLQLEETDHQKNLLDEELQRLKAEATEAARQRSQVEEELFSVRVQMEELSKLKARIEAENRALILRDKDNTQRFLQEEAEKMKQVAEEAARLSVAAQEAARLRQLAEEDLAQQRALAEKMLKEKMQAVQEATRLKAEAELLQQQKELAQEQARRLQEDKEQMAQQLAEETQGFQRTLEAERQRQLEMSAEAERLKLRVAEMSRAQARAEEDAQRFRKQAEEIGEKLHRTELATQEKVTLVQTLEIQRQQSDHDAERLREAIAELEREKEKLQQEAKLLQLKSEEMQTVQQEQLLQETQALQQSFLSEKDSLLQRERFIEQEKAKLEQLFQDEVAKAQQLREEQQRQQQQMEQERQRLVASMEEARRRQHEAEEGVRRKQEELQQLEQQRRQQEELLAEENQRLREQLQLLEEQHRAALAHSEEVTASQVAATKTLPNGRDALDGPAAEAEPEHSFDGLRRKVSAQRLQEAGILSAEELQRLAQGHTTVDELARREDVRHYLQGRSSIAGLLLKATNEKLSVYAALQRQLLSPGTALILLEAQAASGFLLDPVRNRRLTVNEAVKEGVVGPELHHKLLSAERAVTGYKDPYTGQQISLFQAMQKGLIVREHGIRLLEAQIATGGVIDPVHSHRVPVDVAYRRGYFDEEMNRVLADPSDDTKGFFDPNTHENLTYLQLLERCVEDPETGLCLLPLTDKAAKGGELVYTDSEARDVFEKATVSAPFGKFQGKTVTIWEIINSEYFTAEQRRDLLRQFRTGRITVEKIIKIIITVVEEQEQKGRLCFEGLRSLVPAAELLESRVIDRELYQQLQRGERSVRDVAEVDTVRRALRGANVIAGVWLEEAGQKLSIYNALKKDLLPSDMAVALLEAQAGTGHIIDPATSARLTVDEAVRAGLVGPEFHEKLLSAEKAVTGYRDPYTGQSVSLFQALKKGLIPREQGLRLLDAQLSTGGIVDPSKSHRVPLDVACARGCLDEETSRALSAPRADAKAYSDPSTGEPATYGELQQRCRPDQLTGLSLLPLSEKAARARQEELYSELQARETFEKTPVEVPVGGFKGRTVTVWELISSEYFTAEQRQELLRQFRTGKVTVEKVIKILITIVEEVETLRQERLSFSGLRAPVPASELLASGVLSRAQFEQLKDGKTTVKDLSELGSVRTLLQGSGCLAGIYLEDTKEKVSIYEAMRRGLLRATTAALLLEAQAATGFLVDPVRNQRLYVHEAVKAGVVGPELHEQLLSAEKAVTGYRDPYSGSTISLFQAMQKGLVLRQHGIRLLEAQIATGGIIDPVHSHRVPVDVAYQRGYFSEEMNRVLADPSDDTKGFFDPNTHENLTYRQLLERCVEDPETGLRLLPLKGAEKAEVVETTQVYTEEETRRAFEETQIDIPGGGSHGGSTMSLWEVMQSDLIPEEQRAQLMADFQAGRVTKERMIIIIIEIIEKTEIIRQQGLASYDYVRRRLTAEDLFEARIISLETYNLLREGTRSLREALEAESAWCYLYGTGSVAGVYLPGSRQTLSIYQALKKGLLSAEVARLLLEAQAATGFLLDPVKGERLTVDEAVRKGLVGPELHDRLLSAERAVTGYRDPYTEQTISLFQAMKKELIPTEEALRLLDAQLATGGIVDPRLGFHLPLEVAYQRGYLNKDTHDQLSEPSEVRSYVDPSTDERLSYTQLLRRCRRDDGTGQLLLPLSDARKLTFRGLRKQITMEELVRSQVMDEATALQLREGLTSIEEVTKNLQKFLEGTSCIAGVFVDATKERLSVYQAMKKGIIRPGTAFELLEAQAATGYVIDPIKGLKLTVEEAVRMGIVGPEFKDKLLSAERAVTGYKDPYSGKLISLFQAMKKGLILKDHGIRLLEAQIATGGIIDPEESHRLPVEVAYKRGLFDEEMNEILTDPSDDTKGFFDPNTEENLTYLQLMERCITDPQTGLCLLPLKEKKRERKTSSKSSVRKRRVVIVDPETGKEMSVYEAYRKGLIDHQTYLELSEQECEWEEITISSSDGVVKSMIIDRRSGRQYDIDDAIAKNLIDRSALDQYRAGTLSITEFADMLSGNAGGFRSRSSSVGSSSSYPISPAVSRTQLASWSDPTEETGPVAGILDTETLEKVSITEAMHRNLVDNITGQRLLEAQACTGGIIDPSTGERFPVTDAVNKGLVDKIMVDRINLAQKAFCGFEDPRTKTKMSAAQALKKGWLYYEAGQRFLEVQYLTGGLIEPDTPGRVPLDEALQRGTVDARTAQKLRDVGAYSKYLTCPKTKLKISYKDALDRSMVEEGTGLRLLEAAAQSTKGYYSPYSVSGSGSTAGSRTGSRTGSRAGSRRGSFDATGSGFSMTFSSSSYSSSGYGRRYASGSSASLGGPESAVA
Sequence of cysteines in MDA-MB-231 and Ramos cells (Homo sapiens, UniProt P27707) (P27707 whole entry): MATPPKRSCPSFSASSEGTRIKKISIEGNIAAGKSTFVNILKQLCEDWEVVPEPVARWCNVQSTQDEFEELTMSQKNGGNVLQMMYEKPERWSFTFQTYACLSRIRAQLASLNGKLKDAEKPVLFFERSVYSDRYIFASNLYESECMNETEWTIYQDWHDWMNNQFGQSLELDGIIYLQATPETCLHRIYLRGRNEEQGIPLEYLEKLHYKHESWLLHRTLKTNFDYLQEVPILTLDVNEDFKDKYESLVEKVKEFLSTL

Q: `O=C(CCl)NC12CC3CC(CC(C3)C1)C2` [compound 21] was tested. Which “isoTOP-ABPP ratio P35658_C728” value [1]; 231 did it give?
A: 1.3

Q: And the “isoTOP-ABPP ratio, cysteine Q15149_C4574” value [2]?
A: 1.0

Q: And the “isoTOP-ABPP ratio, cysteine O00244_C12” value [3]; 231?
A: 0.7

Q: What about the “isoTOP-ABPP ratio, cysteine Q9NWA0_C139” value [4]; 231 of the same compound?
A: 1.5

Q: And the “isoTOP-ABPP ratio, cysteine Q9Y679_C391” value [5]?
A: 1.5

Q: What about the “isoTOP-ABPP ratio P27707_C9” value [6]; 231 of the same compound?
A: 1.3

Q: `CC(C)CCOCCNC(=O)CCl` [compound 27] was tested. Which “isoTOP-ABPP ratio Q15149_C4574” value [2] did it give?
A: 1.3

Q: What about the “isoTOP-ABPP ratio Q01433_C107” value [7] of the same compound?
A: 0.4

Q: And the “isoTOP-ABPP ratio Q8WV74_C207” value [8]?
A: 2.2

Q: What about the “isoTOP-ABPP ratio O00244_C12” value [3]; 231 of the same compound?
A: 0.4

Q: And the “isoTOP-ABPP ratio Q9NWA0_C139” value [4]; 231?
A: 1.3

Q: What about the “isoTOP-ABPP ratio Q9Y679_C391” value [5] of the same compound?
A: 1.2

Q: What does the source list for `O=C(CCl)N1CCN(CC(=O)N2CCOCC2)CC1` [compound 29]?
A: isoTOP-ABPP ratio P35658_C728 ([1]; ramos): 1.7; isoTOP-ABPP ratio Q9P0J1_C149 ([9]; ramos): 1.0; isoTOP-ABPP ratio O00244_C12 ([3]; ramos): 1.4; isoTOP-ABPP ratio Q9NWA0_C139 ([4]; ramos): 0.7; isoTOP-ABPP ratio P27707_C9 ([6]; ramos): 1.2

Q: `C=CC(=O)N(Cc1cccnc1)c1cc(C(F)(F)F)cc(C(F)(F)F)c1` [compound 31] was tested. Which “isoTOP-ABPP ratio P35658_C728” value [1]; 231 did it give?
A: 0.7

Q: And the “isoTOP-ABPP ratio Q01433_C107” value [7]?
A: 0.7

Q: What about the “isoTOP-ABPP ratio P27707_C9” value ([6]; ramos) of the same compound?
A: 1.2

Q: How did the “isoTOP-ABPP ratio Q9P0J1_C149” value [9]; 231 turn out when `C=CC(=O)Nc1cc(F)c(N2CCN(C(=O)OC(C)(C)C)CC2)c(F)c1` [compound 38] was run?
A: 0.9

Q: What about the “isoTOP-ABPP ratio P14635_C238” value [10] of the same compound?
A: 1.8

Q: What about the “isoTOP-ABPP ratio P27707_C9” value [6]; 231 of the same compound?
A: 1.8

Q: How did the “isoTOP-ABPP ratio P35658_C728” value [1]; 231 turn out when `Cc1ccc(C=C(C#N)C(=O)NCCN2CCOCC2)cc1` [compound 41] was run?
A: 1.1

Q: And the “isoTOP-ABPP ratio Q15149_C4574” value [2]?
A: 0.9

Q: What about the “isoTOP-ABPP ratio Q9P0J1_C149” value [9]; 231 of the same compound?
A: 20.0

Q: What about the “isoTOP-ABPP ratio Q01433_C107” value [7] of the same compound?
A: 0.5

Q: And the “isoTOP-ABPP ratio Q8WV74_C207” value [8]?
A: 0.9

Q: What about the “isoTOP-ABPP ratio Q9NWA0_C139” value [4]; 231 of the same compound?
A: 0.8

Q: And the “isoTOP-ABPP ratio P14635_C238” value [10]?
A: 0.5

Q: And the “isoTOP-ABPP ratio P27707_C9” value [6]; 231?
A: 0.4

Q: Which “isoTOP-ABPP ratio P35658_C728” value [1]; 231 does the source give for `CC1CCc2ccccc2N1C(=O)CCl` (stereo not drawn) [compound 45] here?
A: 3.1

Q: And the “isoTOP-ABPP ratio Q8WV74_C207” value [8]?
A: 20.0

Q: What about the “isoTOP-ABPP ratio Q9Y679_C391” value [5] of the same compound?
A: 20.0

Q: How did the “isoTOP-ABPP ratio Q9P0J1_C149” value [9]; 231 turn out when `O=C(CCl)Nc1cccc2ncccc12` [compound 51] was run?
A: 0.8

Q: What about the “isoTOP-ABPP ratio Q9Y679_C391” value [5] of the same compound?
A: 20.0
